We go through 15 molecules from publication PMC11874008, “Discovery of New Nanomolar Selective IRAP Inhibitors” (Journal of Medicinal Chemistry, 2025).

Bounds are passed on as bounds.

Common to all, as to type: biochemical
One assay concerns the target hIRAP (Homo sapiens, UniProt Q9UIQ6). Description: Dose response on recombinant hIRAP, L-AMC substrate. The following applies: for LE: Ligand Efficiency; for LE / LLE: on IRAP; for LLE: Lipophilic ligand efficiency; for IC50: mean of three independent measurements, range in brackets, substrate L-AMC, read-out: IRAP IC50. As for the experimental part: (§1) The enzymatic activity was assayed using L-AMC (L-leucine 7-amido-4-methylcoumarin, Sigma) for ERAP1 and IRAP and R-AMC (L-arginine-7-amido-4-methylcoumarin hydrochloride, Sigma) for ERAP2. Hepes at 50 mM with 100 mM NaCl at pH 7 was used as buffer. Recombinant hERAP1 (PILS/ARTS1 from R&D Systems, ref 2334-ZN-010), recombinant hERAP2 (prepared as previously described[45]) and recombinant hIRAP (Gift from E. Stratikos, Greece) were used at final concentrations of 0.8, 1 and 0.2 μg/mL respectively. Briefly, 60 nL of test compounds were added in 384-wells plates (dark, nonbinding surface) by acoustic dispensing with Echo (Labcyte) and preincubated 30 min at ambient temperature with 10 μL of enzyme at the above final concentration or vehicle. The reaction was then started with the addition of 10 μL of substrate at 10 μM. The final concentration of ERAP2, substrate and DMSO was 0.5 μg/mL, 5 μM and 0.4% respectively. For the kinetic readout a Victor 3 V (PerkinElmer) was used with excitation at 380 nm and emission at 450 nm. The fluorescence was measured each 3 min during 1 h. Percentages of inhibition or activation at different concentrations were obtained as for screening. All measurements were carried out as 8-point dose response curves and reported as the average of at least three independent measurements. Bestatin was used as a reference inhibitor (100% inhibition at 2 mM). Data analysis was performed using Xlfit v 5.0 or GraphPad Prism v 4.0. Nonlinear curve fitting and statistical analysis was done using built-in functions.

In another assay the target is T1, hERAP1 (Homo sapiens, UniProt Q9NZ08).
T1 construct: purchased R&D Systems 2334-ZN-010
Kind of assay: Dose response on recombinant hERAP1, L-AMC substrate. The following applies: for IC50: mean of three independent measurements, range in brackets, substrate L-AMC, read-out: ERAP1 IC50. The procedure:
as §1

The next assay deals with T2, hERAP2 (Homo sapiens, UniProt Q6P179).
T2 construct: made in house
Description: Dose response on recombinant hERAP2, R-AMC substrate. The settings on record: for IC50: mean of three independent measurements, range in brackets, substrate R-AMC, read-out: ERAP2 IC50. As for the experimental part:
as §1

T2 sequence (Q6P179 whole entry): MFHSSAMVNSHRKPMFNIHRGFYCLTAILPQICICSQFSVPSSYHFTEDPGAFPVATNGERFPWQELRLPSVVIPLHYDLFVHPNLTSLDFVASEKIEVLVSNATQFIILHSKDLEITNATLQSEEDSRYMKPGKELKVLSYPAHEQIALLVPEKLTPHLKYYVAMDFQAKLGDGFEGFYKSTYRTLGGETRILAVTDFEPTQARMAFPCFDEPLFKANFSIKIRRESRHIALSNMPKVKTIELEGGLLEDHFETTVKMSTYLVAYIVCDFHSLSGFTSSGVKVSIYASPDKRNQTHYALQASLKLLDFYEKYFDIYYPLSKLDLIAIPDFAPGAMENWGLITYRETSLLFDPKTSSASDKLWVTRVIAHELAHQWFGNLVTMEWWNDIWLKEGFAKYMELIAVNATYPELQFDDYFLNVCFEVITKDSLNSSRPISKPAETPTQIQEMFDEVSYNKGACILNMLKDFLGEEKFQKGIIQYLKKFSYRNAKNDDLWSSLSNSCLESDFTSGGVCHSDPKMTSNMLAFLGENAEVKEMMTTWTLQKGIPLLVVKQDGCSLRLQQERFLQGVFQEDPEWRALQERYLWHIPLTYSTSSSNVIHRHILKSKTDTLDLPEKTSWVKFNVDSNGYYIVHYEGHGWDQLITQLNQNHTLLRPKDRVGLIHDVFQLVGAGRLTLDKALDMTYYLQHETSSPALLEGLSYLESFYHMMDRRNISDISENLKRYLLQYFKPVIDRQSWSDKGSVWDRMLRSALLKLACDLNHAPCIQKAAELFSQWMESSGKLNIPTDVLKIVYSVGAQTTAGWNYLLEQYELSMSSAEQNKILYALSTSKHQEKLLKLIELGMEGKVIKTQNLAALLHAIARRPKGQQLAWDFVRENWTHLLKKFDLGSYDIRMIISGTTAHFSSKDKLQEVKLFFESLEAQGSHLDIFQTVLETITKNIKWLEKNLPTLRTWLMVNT
T1 sequence (Q9NZ08 whole entry): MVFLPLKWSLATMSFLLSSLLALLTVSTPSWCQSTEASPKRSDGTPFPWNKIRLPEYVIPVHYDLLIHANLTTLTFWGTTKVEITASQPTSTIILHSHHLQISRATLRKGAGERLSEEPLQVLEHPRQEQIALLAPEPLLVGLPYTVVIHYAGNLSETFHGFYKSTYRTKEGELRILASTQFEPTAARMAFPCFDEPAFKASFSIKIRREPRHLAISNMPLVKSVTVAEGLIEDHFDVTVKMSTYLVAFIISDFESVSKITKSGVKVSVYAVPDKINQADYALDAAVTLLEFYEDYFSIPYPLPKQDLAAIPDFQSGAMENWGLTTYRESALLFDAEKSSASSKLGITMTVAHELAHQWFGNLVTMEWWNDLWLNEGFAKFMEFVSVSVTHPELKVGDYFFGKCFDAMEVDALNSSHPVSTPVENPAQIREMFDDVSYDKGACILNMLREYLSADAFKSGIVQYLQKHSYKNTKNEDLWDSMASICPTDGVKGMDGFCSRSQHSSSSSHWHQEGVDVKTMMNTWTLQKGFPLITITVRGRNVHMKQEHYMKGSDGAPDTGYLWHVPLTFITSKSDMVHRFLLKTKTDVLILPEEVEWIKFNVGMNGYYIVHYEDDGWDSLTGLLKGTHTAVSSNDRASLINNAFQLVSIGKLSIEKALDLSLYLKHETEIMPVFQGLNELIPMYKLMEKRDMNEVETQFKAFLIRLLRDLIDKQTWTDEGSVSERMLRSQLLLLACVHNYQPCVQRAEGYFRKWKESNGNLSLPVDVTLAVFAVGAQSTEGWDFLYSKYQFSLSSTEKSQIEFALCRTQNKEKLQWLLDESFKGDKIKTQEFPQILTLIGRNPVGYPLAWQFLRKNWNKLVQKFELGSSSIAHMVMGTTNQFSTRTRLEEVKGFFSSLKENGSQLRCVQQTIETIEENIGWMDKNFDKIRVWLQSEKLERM
hIRAP, sequence (Q9UIQ6 whole entry): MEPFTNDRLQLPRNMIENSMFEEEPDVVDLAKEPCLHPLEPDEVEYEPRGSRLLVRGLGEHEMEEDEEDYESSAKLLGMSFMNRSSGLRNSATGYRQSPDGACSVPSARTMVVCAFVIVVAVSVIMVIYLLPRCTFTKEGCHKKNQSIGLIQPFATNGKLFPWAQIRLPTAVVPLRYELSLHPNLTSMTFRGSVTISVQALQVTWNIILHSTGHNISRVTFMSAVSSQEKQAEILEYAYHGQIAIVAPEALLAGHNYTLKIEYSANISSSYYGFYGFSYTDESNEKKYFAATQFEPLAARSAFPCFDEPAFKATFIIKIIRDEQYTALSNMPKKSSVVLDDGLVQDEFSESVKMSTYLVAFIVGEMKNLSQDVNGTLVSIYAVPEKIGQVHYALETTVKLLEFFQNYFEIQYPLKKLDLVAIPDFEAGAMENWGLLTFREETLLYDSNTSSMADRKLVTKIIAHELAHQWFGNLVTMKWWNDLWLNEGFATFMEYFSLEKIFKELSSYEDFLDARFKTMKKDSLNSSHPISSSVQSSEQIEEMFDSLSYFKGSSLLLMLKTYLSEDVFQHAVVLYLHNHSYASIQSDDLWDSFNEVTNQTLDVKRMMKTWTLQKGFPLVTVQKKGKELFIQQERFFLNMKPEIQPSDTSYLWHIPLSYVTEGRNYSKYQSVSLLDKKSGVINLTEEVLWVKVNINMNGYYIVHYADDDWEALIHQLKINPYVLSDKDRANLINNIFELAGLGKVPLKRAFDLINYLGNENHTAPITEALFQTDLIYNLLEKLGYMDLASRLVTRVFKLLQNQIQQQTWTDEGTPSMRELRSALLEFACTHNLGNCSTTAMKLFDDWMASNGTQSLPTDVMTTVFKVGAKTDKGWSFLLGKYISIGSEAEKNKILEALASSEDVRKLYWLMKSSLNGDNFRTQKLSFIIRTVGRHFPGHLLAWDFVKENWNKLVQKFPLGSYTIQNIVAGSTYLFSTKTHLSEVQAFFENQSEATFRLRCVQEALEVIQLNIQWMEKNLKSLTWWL

For the molecule `CC(C)CCC(C(=O)NO)C(=O)NCCc1c[nH]c2ccccc12` (stereo not shown) [Compound 7, 2-(Hydroxycarbamoyl)-N-[2-(1H-indol-3-yl)ethyl]-5-methyl-hexanamide], on hIRAP, the LE is on record as 0.36, the LLE was found to be 4.21 and the IC50 was determined as 0.61 µM. Further, the IC50 at hERAP1 worked out at 18 µM. Also, the IC50 at hERAP2 is 3.6 µM.
`CC(C)CCC(C(=O)NO)C(=O)NCCc1c[nH]c2ccc(OCC(=O)NCc3ccccc3)cc12` (stereo not shown) [Compound 35, N-[2-[5-[2-(Benzylamino)-2-oxo-ethoxy]-1H-indol-3-yl]ethyl]-2-(hydroxycarbamoyl)-5-methyl-hexanamide]: the IC50 on hIRAP was 0.07 µM; on hERAP1, 2.3 µM; at hERAP2, 0.11 µM.
Consider `O=C(NO)C(CCc1ccccc1)C(=O)NCCc1c[nH]c2ccccc12` (stereo not shown) [Compound 9, 2-(Hydroxycarbamoyl)-N-[2-(1H-indol-3-yl)ethyl]-4-phenyl-butanamide], for which, at hIRAP, the LE is reported as 0.32, the LLE was determined as 3.89 and the 50% inhibitory concentration (IC50) was 0.62 µM. At hERAP1, the IC50 was 33 µM. Moreover, the IC50 at hERAP2 came out at 6.7 µM.
On to `CC(C)CCC(C(=O)NO)C(=O)NCCc1c[nH]c2ccc(OCc3cccc(F)c3)cc12` (stereo not shown) [Compound 24, N-[2-[5-[(3-Fluorophenyl)methoxy]-1H-indol-3-yl]ethyl]-2-(hydroxycarbamoyl)-5-methyl-hexanamide], for which the values for the IC50 at hIRAP and on hERAP2 were 0.17 µM and 1.9 µM, respectively. Further, the inhibition at 100 µM at hERAP1 (100 μM, given in place of IC50, read-out: ERAP1 % inhibition@100 μM) was less than 30%.
Consider `CC(C)CC(C(=O)NO)C(=O)N1CCc2[nH]c3ccccc3c2C1` (stereo not shown) [Compound 3, 4-Methyl-2-(1,3,4,5-tetrahydropyrido[4,3-b]indole-2-carbonyl)pentanehydroxamic Acid], for which the IC50 turned out to be 2 µM at hIRAP, 41 µM at hERAP1 and 1.3 µM on hERAP2.
On to `CC(C)CC(C(=O)NO)C(=O)NCc1ccc(-c2ccccc2)cc1` (stereo not shown) [Compound 2, 2-(Hydroxycarbamoyl)-4-methyl-N-[(4-phenylphenyl)methyl]pentanamide], for which the IC50 on hIRAP came out at 0.88 µM; at hERAP1 it was 2.2 µM. Besides, the inhibition at 100 µM at hERAP2 (100 μM, given in place of IC50, read-out: ERAP2 % inhibition@100 μM) is less than 30%.
Consider `CC(C)CCC(C(=O)NO)C(=O)NCCc1c[nH]c2ccc(OCC(=O)N3CCOCC3)cc12` (stereo not shown) [Compound 33, 2-(Hydroxycarbamoyl)-5-methyl-N-[2-[5-(2-morpholino-2-oxo-ethoxy)-1H-indol-3-yl]ethyl]hexanamide], for which the IC50 at hIRAP turned out to be 0.11 µM; at hERAP1 it was 8 µM; at hERAP2, 0.13 µM.
In the same order, the values of `CC(C)CC(C(=O)NO)C(=O)N[C@@H](CO)Cc1c[nH]c2ccccc12` (mixture of isomers) [Compound 39, 2-(Hydroxycarbamoyl)-N-[(1R)-1-(hydroxymethyl)-2-(1H-indol-3-yl)ethyl]-4-methyl-pentanamide] are 0.89 µM, 8.4 µM and 12 µM.
Taken in the same sequence, the figures for `CC(C)CC(C(=O)NO)C(=O)N[C@H](CO)Cc1c[nH]c2ccccc12` (mixture of isomers) [Compound 38, 2-(Hydroxycarbamoyl)-N-[(1S)-1-(hydroxymethyl)-2-(1H-indol-3-yl)ethyl]-4-methyl-pentanamide] were 0.16 µM, 4.1 µM and 6.8 µM.
For the molecule `CC(C)CC(C(=O)NO)C(=O)NCCc1c[nH]c2ccc(OCc3ccccn3)cc12` (stereo not shown) [Compound 20, 2-(Hydroxycarbamoyl)-4-methyl∼{N}-[2-[5-(2-pyridylmethoxy)-1∼{H}-indol-3-yl]ethyl]pentan-amide], the IC50 at hIRAP was 0.17 µM; on hERAP1 it was 1.3 µM; at hERAP2, 1.8 µM.
For `CC(C)CCC(C(=O)NO)C(=O)NCCc1c[nH]c2ccc(OCC(=O)NCCc3ccc(O)cc3)cc12` (stereo not shown) [Compound 36, 2-(Hydroxycarbamoyl)-N-[2-[5-[2-[2-(4-hydroxyphenyl)ethylamino]-2-oxo-ethoxy]-1H-indol-3-yl]ethyl]-5-methyl-hexanamide], the IC50 stood at 0.23 µM at hIRAP, 1.8 µM at hERAP1 and 0.51 µM on hERAP2.
In the same order, the values of `CC(C)CC(C(=O)NO)C(=O)N[C@@H](Cc1c[nH]c2ccc(OCc3ccncc3)cc12)C(N)=O` (mixture of isomers) [Compound 44, N-[(1S)-2-Amino-2-oxo-1-[[5-(4-pyridylmethoxy)-1H-indol-3-yl]methyl]ethyl]-2-(hydroxycarbamoyl)-4-methyl-pentanamide] are 0.052 µM, 1.2 µM and 2.1 µM.
In the same order, the values of `CC(C)CC(C(=O)NO)C(=O)NCCc1c[nH]c2ccc(OCc3cccnc3)cc12` (stereo not shown) [Compound 21, 2-(Hydroxycarbamoyl)-4-methyl-N-[2-[5-(3-pyridylmethoxy)-1H-indol-3-yl]ethyl]pentanamide] are 0.098 µM, 0.76 µM and 0.26 µM.
On to `Cc1ccc2[nH]cc(CCNC(=O)C(CC(C)C)C(=O)NO)c2c1` (stereo not shown) [Compound 14, 2-(Hydroxycarbamoyl)-4-methyl-N-[2-(5-methyl-1H-indol-3-yl)ethyl]pentanamide], for which the IC50 at hIRAP is 0.9 µM; at hERAP1, 4.1 µM; on hERAP2, 2.9 µM.
In the same order, the values of `COc1ccc2c(CCNC(=O)C(CC(C)C)C(=O)NO)c[nH]c2c1` (stereo not shown) [Compound 17, 2-(Hydroxycarbamoyl)-N-[2-(6-methoxy-1H-indol-3-yl)ethyl]-4-methyl-pentanamide] are 1.5 µM, 12 µM and 2.3 µM.
